Our source for the inhibition and IC50 values is ChEMBL document CHEMBL1145273, “New cytotoxic bisindole alkaloids with protein tyrosine kinase inhibitory activity from a myxomycete Lycogala epidendrum” (Bioorg Med Chem Lett, 2005).

Test [1] concerns the target T1, Protein kinase C (PKC) (Homo sapiens) (UniProt O94806+P41743+P17252+P05129+Q05655+P05771+Q05513+Q02156+P24723+Q15139+Q04759). The test is described as follows: Inhibition of Protein kinase C mediated […]-ATP incorporation at 0.1 ug/mL. The test is classed as protein assay.
In test [2] the target is Proto-oncogene tyrosine-protein kinase Src (Homo sapiens) (UniProt P12931). The test is described as follows: Inhibition of protein tyrosine kinase mediated [gamma-32P]-ATP incorporation at 0.1 ug/mL in src-transformed NIH3T3.
Chain of Proto-oncogene tyrosine-protein kinase Src (Homo sapiens) (P12931 2-536 limits assumed): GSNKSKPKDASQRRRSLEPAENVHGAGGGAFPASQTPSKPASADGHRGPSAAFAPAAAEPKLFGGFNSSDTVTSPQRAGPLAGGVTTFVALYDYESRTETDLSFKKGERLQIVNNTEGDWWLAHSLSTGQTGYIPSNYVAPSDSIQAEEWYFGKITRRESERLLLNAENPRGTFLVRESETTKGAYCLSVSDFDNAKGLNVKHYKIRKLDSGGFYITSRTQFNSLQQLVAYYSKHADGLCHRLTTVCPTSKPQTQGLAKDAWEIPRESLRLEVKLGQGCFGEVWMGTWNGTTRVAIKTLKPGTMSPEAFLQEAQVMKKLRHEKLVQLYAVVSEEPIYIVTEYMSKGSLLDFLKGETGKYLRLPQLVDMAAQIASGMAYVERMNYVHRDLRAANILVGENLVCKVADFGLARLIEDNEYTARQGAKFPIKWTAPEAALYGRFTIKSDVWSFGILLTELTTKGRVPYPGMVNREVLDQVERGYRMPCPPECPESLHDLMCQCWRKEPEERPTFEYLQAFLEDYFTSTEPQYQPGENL
Test [3] addresses T2, Eukaryotic elongation factor 2 kinase (Homo sapiens) (UniProt O00418).
T2 sequence (whole entry): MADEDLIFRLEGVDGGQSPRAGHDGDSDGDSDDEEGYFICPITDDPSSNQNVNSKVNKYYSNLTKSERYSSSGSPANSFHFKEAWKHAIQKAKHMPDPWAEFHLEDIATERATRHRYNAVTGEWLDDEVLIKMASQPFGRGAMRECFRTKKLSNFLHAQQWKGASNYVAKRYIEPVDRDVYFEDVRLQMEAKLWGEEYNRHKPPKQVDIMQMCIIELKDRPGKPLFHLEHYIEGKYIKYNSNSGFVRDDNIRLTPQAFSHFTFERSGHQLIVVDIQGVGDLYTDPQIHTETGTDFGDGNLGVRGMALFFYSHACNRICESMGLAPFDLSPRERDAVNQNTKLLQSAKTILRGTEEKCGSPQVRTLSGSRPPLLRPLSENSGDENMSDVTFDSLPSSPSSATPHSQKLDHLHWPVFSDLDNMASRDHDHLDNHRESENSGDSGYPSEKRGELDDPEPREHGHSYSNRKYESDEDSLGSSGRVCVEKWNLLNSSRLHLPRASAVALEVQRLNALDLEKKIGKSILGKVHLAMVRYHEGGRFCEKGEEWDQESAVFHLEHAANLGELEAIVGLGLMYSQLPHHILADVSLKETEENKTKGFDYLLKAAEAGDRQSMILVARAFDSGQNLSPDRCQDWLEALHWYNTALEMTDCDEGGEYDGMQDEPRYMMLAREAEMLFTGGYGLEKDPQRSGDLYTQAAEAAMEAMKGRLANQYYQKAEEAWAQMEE
The test is described as follows: Inhibition of eukaryotic elongation factor-2 kinase mediated [gamma-32P]-ATP incorporation at 10 ug/mL.

Test [4] addresses T3, cAMP-dependent protein kinase (PKA) (Homo sapiens) (UniProt P22694+P17612+P22612). Briefly: Inhibition of Protein kinase A mediated [gamma-32P]-ATP incorporation at 10 ug/mL. The test is classed as protein assay.
Test [5] addresses Vascular endothelial growth factor receptor 1 (Homo sapiens) (UniProt P17948). Briefly: Inhibition of Vascular endothelial growth factor receptor 1 mediated [gamma-32P]-ATP incorporation at 1 ug/mL.
Test [6] addresses T1, Protein kinase C (PKC) (Homo sapiens). The test is described as follows: Inhibition of Protein kinase C mediated […]-ATP incorporation at 10 ug/mL; Range is 50 to 80%. The test is classed as protein assay.
In test [7] the target is T2, Eukaryotic elongation factor 2 kinase (Homo sapiens). Briefly: Inhibition of eukaryotic elongation factor-2 kinase mediated [gamma-32P]-ATP incorporation at 1 ug/mL.
Test [8] addresses Proto-oncogene tyrosine-protein kinase Src (Homo sapiens) (UniProt P12931). Briefly: Inhibition of protein tyrosine kinase mediated [gamma-32P]-ATP incorporation at 1 ug/mL in src-transformed NIH3T3.
The subject of a further test is Jurkat. The test is described as follows: Cytotoxicity against Jurkat cells. The test is classed as functional, cell-based. The conditions noted are these: Homo sapiens.
Test [9] is described as follows: Cytotoxicity against KB/VJ300 cells. The test is classed as functional, cell-based. The conditions noted are these: Homo sapiens.
The next test relates to HeLa. The test is described as follows: Cytotoxicity against HeLa cells. It is filed as functional, cell-based. The following applies: Homo sapiens.
Test [10] has as its target T1, Protein kinase C (PKC) (Homo sapiens). The test is described as follows: Inhibition of Protein kinase C mediated […]-ATP incorporation at 1 ug/mL. It is filed as protein assay.
Test [11] concerns the target Vascular endothelial growth factor receptor 1 (Homo sapiens) (UniProt P17948). Briefly: Inhibition of Vascular endothelial growth factor receptor 1 mediated [gamma-32P]-ATP incorporation at 0.1 ug/mL.
The target of test [12] is T3, cAMP-dependent protein kinase (PKA) (Homo sapiens). Briefly: Inhibition of Protein kinase A mediated [gamma-32P]-ATP incorporation at 0.1 ug/mL. The test is classed as protein assay.
Test [13] shares this target. Briefly: Inhibition of Protein kinase A mediated [gamma-32P]-ATP incorporation at 1 ug/mL. The test is classed as protein assay.
The target of test [14] is Proto-oncogene tyrosine-protein kinase Src (Homo sapiens) (UniProt P12931). Briefly: Inhibition of protein tyrosine kinase mediated [gamma-32P]-ATP incorporation at 10 ug/mL in src-transformed NIH3T3; range = 50-80%.
The target in test [15] is Vascular endothelial growth factor receptor 1 (Homo sapiens) (UniProt P17948). Briefly: Inhibition of Vascular endothelial growth factor receptor 1 mediated [gamma-32P]-ATP incorporation at 10 ug/mL.
Chain of Vascular endothelial growth factor receptor 1 (Homo sapiens) (P17948 whole entry): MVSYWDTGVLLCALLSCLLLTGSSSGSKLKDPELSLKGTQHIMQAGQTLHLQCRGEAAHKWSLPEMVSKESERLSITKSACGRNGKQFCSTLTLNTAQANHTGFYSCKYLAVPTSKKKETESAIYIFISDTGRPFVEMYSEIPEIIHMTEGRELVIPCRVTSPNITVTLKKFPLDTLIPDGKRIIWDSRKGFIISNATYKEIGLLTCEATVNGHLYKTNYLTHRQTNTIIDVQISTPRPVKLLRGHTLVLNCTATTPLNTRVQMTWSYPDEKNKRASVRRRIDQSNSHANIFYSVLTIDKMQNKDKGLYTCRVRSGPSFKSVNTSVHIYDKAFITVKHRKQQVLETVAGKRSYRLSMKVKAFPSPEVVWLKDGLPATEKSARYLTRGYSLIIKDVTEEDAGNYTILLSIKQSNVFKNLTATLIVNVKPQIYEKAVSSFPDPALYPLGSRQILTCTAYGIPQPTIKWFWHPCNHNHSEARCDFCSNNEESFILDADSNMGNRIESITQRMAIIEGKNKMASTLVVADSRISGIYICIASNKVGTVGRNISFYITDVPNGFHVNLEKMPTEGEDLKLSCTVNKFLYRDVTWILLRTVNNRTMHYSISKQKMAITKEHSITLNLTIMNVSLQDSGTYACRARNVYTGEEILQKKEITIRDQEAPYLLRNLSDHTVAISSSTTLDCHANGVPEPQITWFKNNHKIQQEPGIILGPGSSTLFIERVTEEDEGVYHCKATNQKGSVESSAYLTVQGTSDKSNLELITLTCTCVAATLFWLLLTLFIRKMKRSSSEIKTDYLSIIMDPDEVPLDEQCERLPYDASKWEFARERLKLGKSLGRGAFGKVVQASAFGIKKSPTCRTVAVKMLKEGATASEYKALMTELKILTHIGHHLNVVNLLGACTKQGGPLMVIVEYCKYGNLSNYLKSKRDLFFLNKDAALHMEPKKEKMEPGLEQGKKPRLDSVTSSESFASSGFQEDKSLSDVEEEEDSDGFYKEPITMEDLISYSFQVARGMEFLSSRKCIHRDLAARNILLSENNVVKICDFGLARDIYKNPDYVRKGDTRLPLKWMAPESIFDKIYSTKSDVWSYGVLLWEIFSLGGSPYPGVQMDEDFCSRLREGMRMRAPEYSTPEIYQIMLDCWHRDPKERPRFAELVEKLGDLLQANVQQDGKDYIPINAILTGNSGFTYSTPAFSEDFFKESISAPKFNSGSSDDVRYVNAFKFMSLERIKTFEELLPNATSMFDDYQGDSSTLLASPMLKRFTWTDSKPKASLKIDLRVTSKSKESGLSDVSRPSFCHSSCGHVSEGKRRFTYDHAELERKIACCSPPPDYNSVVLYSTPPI
Test [16] has as its target T2, Eukaryotic elongation factor 2 kinase (Homo sapiens). The test is described as follows: Inhibition of eukaryotic elongation factor-2 kinase mediated [gamma-32P]-ATP incorporation at 0.1 ug/mL.
The target of test [17] is Proto-oncogene tyrosine-protein kinase Src (Homo sapiens) (UniProt P12931). The test is described as follows: Inhibition of protein tyrosine kinase mediated [gamma-32P]-ATP incorporation at 10 ug/mL in src-transformed NIH3T3.
Test [18] concerns the target T1, Protein kinase C (PKC) (Homo sapiens). Briefly: Inhibition of Protein kinase C mediated […]-ATP incorporation at 10 ug/mL. The test is classed as protein assay.
Test [19] has as its target T2, Eukaryotic elongation factor 2 kinase (Homo sapiens). The test is described as follows: Inhibition of eukaryotic elongation factor-2 kinase mediated [gamma-32P]-ATP incorporation at 10 ug/mL; Range is 50-80.

Values after ≈ are worked out from the molar mass of the structure shown.

In general, inhibition refers to the change of the read-out against control, counted positive when it falls. A low value points to little suppression. One may read the IC50 as the concentration that inhibits the measured activity by half. A low value points to higher potency. For the compound `O=C1NC(=O)c2c1c1c3ccccc3[nH]c1c1[nH]c3cc(O)c(O)cc3c21`, the inhibition in [1] is less than 50%; in test [2] it was less than 50%; in [3] it was less than 50%; in test [4], less than 50%; in test [5], less than 50%; in [6], 80%. In addition, the inhibition in [7], in [8], in [10], in test [11], in test [12] and in test [13] was less than 50% in each case. For the same compound, the inhibition in [14] was 80%; in [15] it was less than 50%; in test [16], less than 50%. For the same compound, the IC50 with Jurkat is 0.84 µg/mL (≈ 2.35 µM); in test [9], 25 µg/mL (≈ 70 µM); with HeLa, 2.1 µg/mL (≈ 5.88 µM).
`O=C1NC(=O)C(c2c[nH]c3ccccc23)=C1c1c[nH]c2ccccc12` [RO-316233]: the inhibition in test [2] was less than 50%; in test [3], less than 50%; in test [4], 80%; in test [5], less than 50%; in [7] it was less than 50%; in [8] it was less than 50%. For the same compound, the inhibition is less than 50% in test [10]; less than 50% in [11]; less than 50% in test [12]; less than 50% in test [13]; 80% in test [17]; less than 50% in test [15]. Moreover, the inhibition in [16] was less than 50%. For the same compound, the concentration for half-maximal inhibition (IC50) in the test with Jurkat is 6.3 µg/mL (≈ 19.2 µM); in test [9], greater than 25 µg/mL.
`O=C1NCc2c1c1c3ccc(O)cc3[nH]c1c1[nH]c3ccccc3c21`: the inhibition in test [1] was less than 50%; in [2], less than 50%; in test [4], 80%; in [5], less than 50%; in test [7], less than 50%; in test [8] it was 80%. For the same compound, the inhibition in test [18] is 80%; in test [10], less than 50%; in test [11], less than 50%; in [12], less than 50%; in test [13] it was less than 50%; in test [17], greater than 80%. Further, the inhibition in [15] is 80%; in [19] it was 80%; in [16], less than 50%. Besides, the results for the concentration for half-maximal inhibition (IC50) (in the test with Jurkat; in test [9]; in the test with HeLa) were 1.34 µg/mL (≈ 4.09 µM), 7.6 µg/mL (≈ 23.2 µM) and 5.4 µg/mL (≈ 16.5 µM), respectively.
In the case of `COC(=O)c1[nH]c(C(=O)OC)c(-c2c[nH]c3ccc(O)cc23)c1-c1c[nH]c2ccccc12` [LYCOGARUBIN B], the inhibition in test [1] was less than 50%; in [2], less than 50%; in test [3], less than 50%; in [4], less than 50%; in test [5] it was 50%; in test [7], less than 50%. The inhibition in [8], in test [18], in test [10], in test [11], in test [13] and in test [17] was less than 50% in each case. Also, the inhibition in test [15] and in test [16] was less than 50% each time. Further, the figures for the half-maximal inhibitory concentration (IC50) (in the test with Jurkat; in test [9]) were 18 µg/mL (≈ 41.9 µM) and greater than 25 µg/mL, respectively.
In the case of `COC(=O)c1[nH]c(C(=O)OC)c(-c2c[nH]c3ccccc23)c1-c1c[nH]c2ccccc12` [LYCOGARUBIN C], the inhibition in test [1], in test [2], in test [3], in test [4], in test [5] and in [7] was less than 50% throughout. Also, the inhibition in test [8], in [18], in test [10], in test [12], in test [13] and in test [17] was less than 50% in each case. Also, the inhibition in [15] and in test [16] was less than 50% throughout. The IC50 with Jurkat is 15.3 µg/mL (≈ 37 µM); in test [9], greater than 25 µg/mL.
